The values below come from ChEMBL document CHEMBL4706588, “Rational design and biological evaluation of a new class of thiazolopyridyl tetrahydroacridines as cholinesterase and GSK-3 dual inhibitors for Alzheimer's disease” (Eur J Med Chem, 2020).

One data set in a line: in vitro. The settings on record: PAMPA. For orientation: PAMPA measures passive passage across an artificial lipid membrane.
In the next data set the target is Cholinesterase (Homo sapiens, UniProt P06276). The experiment in a line: Inhibition of human BuChE using butyrylthiocholine iodide as substrate preincubated with enzyme for 1 min followed by substrate addition and measured after 10 mins by Ellman's method. Background: DTNB colorimetry detects thiols as they appear.
The next data set addresses Acetylcholinesterase (Homo sapiens, UniProt P22303). Nature of the data set: Inhibition of human AChE using acetylthiocholine iodide as substrate preincubated with enzyme for 1 min followed by substrate addition and measured after 10 mins by Ellman's method.
The target in data set [1] is Glycogen synthase kinase-3 beta (Homo sapiens, UniProt P49841). Nature of the data set: biochemical.
Description: Inhibition of recombinant human N-terminal His6-tagged GSK-3beta H350L mutant expressed in baculovirus infected Sf21 cells using GSM as substrate incubated for 30 mins in presence of ATP by kinase-glo luminescence assay
A further data set relates to Mus musculus. The experiment in a line: Cognitive enhancing effect in ICR mouse model of scopolamine-induced memory impairment assessed as improvement in trajectories to platform at 15 mg/kg, po administered 30 mins prior to scopolamine injection by Morris water maze test. It is filed as functional, organism-based.
Data set [2] can be described thus: Effect on cell morphology in LPS-treated mouse BV-2 cells at 5 uM pretreated for 1 hr followed by incubation with LPS for 24 hrs by fluorescence microscopic analysis. The class given is ADME. The settings on record: bv-2, 25 h.
Data set [3] is described as follows: Effect on swimming speed in ICR mouse model of scopolamine-induced memory impairment at 15 mg/kg, po administered 30 mins prior to scopolamine injection by Morris water maze test. The class given is ADME, organism-based. The settings on record: in vivo, 0.5 h.
The subject of another data set is BV-2. Nature of the data set: Inhibition of LPS-induced ROS production in mouse BV-2 cells at 5 uM incubated for 1 hr followed by LPS stimulation and measured after 24 hrs by DCFH-DA staining based inverted fluorescence microscopic analysis. The settings on record: time 25.0 hrs. The class given is functional, cell-based.

Calls of active or inactive are those of the source. No cut-off for these calls is given here. A value given as a limit tells only on which side of the number the result lay.

Sequence of Acetylcholinesterase (P22303 whole entry): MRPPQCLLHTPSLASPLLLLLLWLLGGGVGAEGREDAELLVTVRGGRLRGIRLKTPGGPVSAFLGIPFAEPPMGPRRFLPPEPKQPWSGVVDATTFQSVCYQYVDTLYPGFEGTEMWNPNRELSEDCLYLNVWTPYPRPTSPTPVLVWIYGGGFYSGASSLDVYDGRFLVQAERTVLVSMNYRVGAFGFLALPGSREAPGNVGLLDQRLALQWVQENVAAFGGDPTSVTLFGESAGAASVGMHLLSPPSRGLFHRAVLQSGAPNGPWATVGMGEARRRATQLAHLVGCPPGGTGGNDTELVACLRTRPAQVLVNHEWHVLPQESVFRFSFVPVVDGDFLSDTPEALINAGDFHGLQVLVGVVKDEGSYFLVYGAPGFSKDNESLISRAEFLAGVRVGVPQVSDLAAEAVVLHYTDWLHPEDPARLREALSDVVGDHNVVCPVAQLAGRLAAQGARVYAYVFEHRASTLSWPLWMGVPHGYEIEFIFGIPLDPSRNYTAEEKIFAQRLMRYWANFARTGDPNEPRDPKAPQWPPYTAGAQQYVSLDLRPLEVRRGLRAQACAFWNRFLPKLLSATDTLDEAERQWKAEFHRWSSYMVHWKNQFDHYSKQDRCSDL
Sequence of Cholinesterase (P06276 whole entry): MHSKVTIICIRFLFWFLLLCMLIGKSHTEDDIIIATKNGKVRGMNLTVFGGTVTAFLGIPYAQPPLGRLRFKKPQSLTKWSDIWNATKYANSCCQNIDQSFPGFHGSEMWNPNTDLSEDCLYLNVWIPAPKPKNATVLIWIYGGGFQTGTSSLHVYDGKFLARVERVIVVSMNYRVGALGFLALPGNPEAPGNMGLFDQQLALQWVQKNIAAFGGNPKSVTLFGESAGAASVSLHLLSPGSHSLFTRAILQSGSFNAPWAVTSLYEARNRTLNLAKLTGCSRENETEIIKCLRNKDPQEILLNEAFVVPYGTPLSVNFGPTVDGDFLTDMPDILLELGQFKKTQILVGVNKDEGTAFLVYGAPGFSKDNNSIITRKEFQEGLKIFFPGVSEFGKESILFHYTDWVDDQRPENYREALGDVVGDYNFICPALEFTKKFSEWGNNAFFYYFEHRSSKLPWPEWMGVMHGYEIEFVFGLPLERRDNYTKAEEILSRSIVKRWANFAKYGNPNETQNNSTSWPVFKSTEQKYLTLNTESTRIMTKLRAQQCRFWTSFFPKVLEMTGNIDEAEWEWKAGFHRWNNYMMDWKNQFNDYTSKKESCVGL
Sequence of Glycogen synthase kinase-3 beta (P49841 whole entry): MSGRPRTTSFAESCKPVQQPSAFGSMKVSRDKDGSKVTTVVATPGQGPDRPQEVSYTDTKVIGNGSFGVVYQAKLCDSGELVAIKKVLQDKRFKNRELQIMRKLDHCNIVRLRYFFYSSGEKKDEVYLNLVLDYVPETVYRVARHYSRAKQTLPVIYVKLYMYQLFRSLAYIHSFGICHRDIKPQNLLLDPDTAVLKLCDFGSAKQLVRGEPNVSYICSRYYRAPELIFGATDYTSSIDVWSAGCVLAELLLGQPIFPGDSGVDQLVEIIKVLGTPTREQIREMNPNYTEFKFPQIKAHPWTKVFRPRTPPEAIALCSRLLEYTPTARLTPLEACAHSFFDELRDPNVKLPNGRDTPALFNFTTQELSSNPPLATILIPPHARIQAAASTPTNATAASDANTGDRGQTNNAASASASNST
Description for in vitro: Effective permeability of compound at 100 ug/ml incubated for 20 hrs by PAMPA-BBB assay

On to `CCn1cc(C(=O)O)c(=O)c2ccc(-n3cccc3)cc21`, for which the Papp at 20 h, 100 ug/ml in the data set “in vitro” is 2.5 ×10⁻⁶ cm/s.
With `CNC(=O)c1sc(-c2ccnc(NC(=O)CNCCNc3c4c(nc5ccccc35)CCCC4)c2)nc1OCC(C)C`, the IC50 was 619 nM against Cholinesterase, 49.2 nM against Acetylcholinesterase and 132 nM in data set [1].
As to `CNC(=O)c1sc(-c2ccnc(NC(=O)CNCCNc3c4c(nc5ccc(OC)cc35)CCCC4)c2)nc1OCC1CC1`, in the data set “in vitro”, the Papp at 20 h, 100 ug/ml was 5.7 ×10⁻⁶ cm/s. The IC50 at Cholinesterase is over 1000 nM; against Acetylcholinesterase it was 30.7 nM; in data set [1], 39.3 nM.
In turn, `CCn1cc(C(=O)O)c(=O)c2cc(F)c(N3CCNC(C)C3)c(F)c21` (stereo unspecified) [LOMEFLOXACIN] came in with a Papp at 20 h, 100 ug/ml in the data set “in vitro” of 0.9 ×10⁻⁶ cm/s.
In the case of `CCCNC(=O)c1sc(-c2ccnc(NC(=O)CNCCNc3c4c(nc5ccccc35)CCCC4)c2)nc1OCC1CC1`, the IC50 against Cholinesterase was determined as 89.5 nM; against Acetylcholinesterase it was 4.9 nM; in data set [1] it was 239 nM.
For `CNC(=O)c1sc(-c2ccnc(NC(=O)CNCCNc3c4c(nc5ccccc35)CCCC4)c2)nc1OC(C)C`, the IC50 on Cholinesterase was 330 nM; against Acetylcholinesterase, 237 nM; in data set [1], 71.6 nM.
The like results for `O=C(NCCCNc1c2c(nc3ccccc13)CCCC2)c1sc(-c2ccnc(NC(=O)C3CCC3)c2)nc1OCC1CC1` were, in that order, 30.7 nM, 295 nM and 80.7 nM.
The like results for `CC(=O)Nc1cc(-c2nc(OCC3CC3)c(C(=O)NCCCNc3c4c(nc5ccccc35)CCCC4)s2)ccn1` were, in that order, 173 nM, 394 nM and 92.8 nM.
The matching figures for `CNC(=O)c1sc(-c2ccnc(NC(=O)CNCCCCCCCCNc3c4c(nc5ccccc35)CCCC4)c2)nc1OCC1CC1`: 3.2 nM, 15.2 nM and 62.2 nM.
Consider `CNC(=O)c1sc(-c2ccnc(NC(=O)CNCCNc3c4c(nc5ccccc35)CCCC4)c2)nc1OCC1CCC1`, for which the IC50 against Cholinesterase was 277 nM; against Acetylcholinesterase it was 155 nM; in data set [1], 130 nM.
The like results for `NC(=O)c1sc(-c2ccnc(NC(=O)C3CC3)c2)nc1OCCc1cn(-c2c3c(nc4ccccc24)CCCC3)nn1` were, in that order, over 1000 nM, over 1000 nM and 6.5 nM.
For `CNC(=O)c1sc(-c2ccnc(NC(=O)C3CC3)c2)nc1OCCc1cn(CCNc2c3c(nc4cc(Cl)ccc24)CCCC3)nn1`, the Papp at 20 h, 100 ug/ml in “in vitro” is 4.7 ×10⁻⁶ cm/s. Also, the IC50 at Cholinesterase was over 1000 nM; on Acetylcholinesterase, 38.7 nM; in data set [1], 46.7 nM.
Consider `CNC(=O)c1sc(-c2ccnc(NC(=O)CNCCCCCCNc3c4c(nc5ccccc35)CCCC4)c2)nc1OCC1CC1`, for which the IC50 is 8.2 nM at Cholinesterase, 21.9 nM against Acetylcholinesterase and 62 nM in data set [1].
Regarding `CNC(=O)c1sc(-c2ccnc(NC(=O)CNCCCCNc3c4c(nc5ccccc35)CCCC4)c2)nc1OCC1CC1`, the Papp at 20 h, 100 ug/ml in the data set “in vitro” was found to be 7.1 ×10⁻⁶ cm/s. The IC50 against Cholinesterase is 48.3 nM; against Acetylcholinesterase, 23.1 nM; in data set [1], 41.6 nM.
`COc1nc(-c2ccnc(NC(=O)C3CC3)c2)sc1C(N)=O`: the IC50 at Cholinesterase was over 1000 nM; against Acetylcholinesterase it was over 1000 nM; in data set [1] it was 17.2 nM.
`CNC(=O)c1sc(-c2ccnc(NC(=O)C3CC3)c2)nc1OCCOCc1cn(CCNc2c3c(nc4ccccc24)CCCC3)nn1`: the Papp at 20 h, 100 ug/ml in “in vitro” was 4.6 ×10⁻⁶ cm/s. Moreover, the result in the data set with Mus musculus was Active. The IC50 against Cholinesterase stood at 360 nM; on Acetylcholinesterase it was 44.7 nM; in data set [1], 20.8 nM. Besides, the Activity result in data set [2] and in data set [3] was “Non-Toxic” in each case. Moreover, the inhibition result in the data set on BV-2 was “Active”.
For `CNC(=O)c1sc(-c2ccnc(NC(=O)C3CC3)c2)nc1OCCCc1cn(CCNc2c3c(nc4ccc(OC)cc24)CCCC3)nn1`, the 50% inhibitory concentration (IC50) against Cholinesterase was over 1000 nM; on Acetylcholinesterase, over 1000 nM; in data set [1] it was 14.6 nM.
Take `CCNC(=O)c1sc(-c2ccnc(NC(=O)CNCCNc3c4c(nc5ccccc35)CCCC4)c2)nc1OCC1CC1`: the values for the 50% inhibitory concentration (IC50) (against Cholinesterase; at Acetylcholinesterase; in data set [1]) were 512 nM, 45.2 nM and 114 nM, respectively.
Regarding `CNC(=O)c1sc(-c2ccnc(NC(=O)C3CC3)c2)nc1OCCc1cn(CCNc2c3c(nc4ccccc24)CCCC3)nn1`, the figures for the IC50 (at Cholinesterase; against Acetylcholinesterase; in data set [1]) were 300 nM, 269 nM and 72 nM, respectively.
With `CNC(=O)c1sc(-c2ccnc(NC(=O)C3CC3)c2)nc1OCCOCc1cn(CCNc2c3c(nc4cc(Cl)ccc24)CCCC3)nn1`, in the data set “in vitro”, the Papp at 20 h, 100 ug/ml came out at 4.2 ×10⁻⁶ cm/s. Further, the IC50 against Cholinesterase was over 1000 nM; against Acetylcholinesterase, 12.1 nM; in data set [1], 26.3 nM.
For `CNC(=O)c1sc(-c2ccnc(NC(=O)C3CC3)c2)nc1OCCc1cn(CCNc2c3c(nc4ccc(OC)cc24)CCCC3)nn1`, the values for the half-maximal inhibitory concentration (IC50) (against Cholinesterase; on Acetylcholinesterase; in data set [1]) were 37.5 nM, over 1000 nM and 37.1 nM, respectively.
The like results for `CNC(=O)c1sc(-c2ccnc(NC(=O)C3CC3)c2)nc1OCCOCc1cn(-c2c3c(nc4ccccc24)CCCC3)nn1` were, in that order, 200 nM, over 1000 nM and 83.9 nM.
The matching figures for `CNC(=O)c1sc(-c2ccnc(NC(=O)CNCCNc3c4c(nc5ccccc35)CCCC4)c2)nc1OC`: 262 nM, 97.4 nM and 41.1 nM.
The like results for `CNC(=O)c1sc(-c2ccnc(NC(=O)CNCCNc3c4c(nc5cc(Cl)ccc35)CCCC4)c2)nc1OCC1CC1` were, in that order, 613 nM, 40.5 nM and 62.6 nM.
For the molecule `CNC(=O)c1sc(-c2ccnc(NC(=O)C3CC3)c2)nc1OCCCc1cn(CCNc2c3c(nc4ccccc24)CCCC3)nn1`, the results for the IC50 (against Cholinesterase; against Acetylcholinesterase; in data set [1]) were 170 nM, 168 nM and 64.3 nM, respectively.
`CNC(=O)c1sc(-c2ccnc(NC(=O)C3CC3)c2)nc1OCCc1cn(-c2c3c(nc4ccccc24)CCCC3)nn1`: the IC50 against Cholinesterase was 600 nM; on Acetylcholinesterase it was over 1000 nM; in data set [1] it was 51.7 nM.
For `NC(=O)c1sc(-c2ccnc(NC(=O)CNCCNc3c4c(nc5ccccc35)CCCC4)c2)nc1OCC1CC1`, the Papp at 20 h, 100 ug/ml in “in vitro” is 4.9 ×10⁻⁶ cm/s. Moreover, the figures for the IC50 (against Cholinesterase; against Acetylcholinesterase; in data set [1]) were 190 nM, 0.8 nM and 42.6 nM, respectively.
Take `CNC(=O)c1sc(-c2ccnc(NC(=O)CNCCNc3c4c(nc5ccccc35)CCCC4)c2)nc1OCC(C)(C)C`: the IC50 amounted to 236 nM against Cholinesterase, 103 nM against Acetylcholinesterase and 165 nM in data set [1].
The matching figures for `CNC(=O)c1sc(-c2ccnc(NC(=O)C3CC3)c2)nc1OCCOCc1cn(CCNc2c3c(nc4ccc(OC)cc24)CCCC3)nn1`: over 1000 nM, over 1000 nM and 31 nM.
As for `O=C(NCCCNc1c2c(nc3ccccc13)CCCC2)c1sc(-c2ccnc(NC(=O)C3CC3)c2)nc1OCC1CC1`, the IC50 against Cholinesterase came out at 216 nM; against Acetylcholinesterase, 312 nM; in data set [1], 104 nM.

The Papp is the rate of passage across a membrane or cell layer, normalised by area and donor concentration. Low values mean slow passage, high ones fast passage. What is called IC50 is the point on the concentration scale where inhibition reaches its midpoint. A high value points to a need for much substance.
